Test results: US6831106B1, “Vitamin D analogues” (Galderma Research & Development, S.N.C., priority 1999, dated 2004)

Each compound was assayed against T1, human VDR receptor (Homo sapiens, UniProt P11473) (assay: VDR agonist activity, co-transfection of human VDR expression vector and p240Hase-CAT reporter in HeLa cells). Conditions: HeLa cell line, CAT reporter under rat 24-hydroxylase promoter, 18 hours treatment, ELISA; read-out: AC 50 (dose required to achieve 50% of the maximum activity of the product).
T1 construct: expressed in transfected cells; host or cells: HeLa
T1 sequence (P11473 1-427): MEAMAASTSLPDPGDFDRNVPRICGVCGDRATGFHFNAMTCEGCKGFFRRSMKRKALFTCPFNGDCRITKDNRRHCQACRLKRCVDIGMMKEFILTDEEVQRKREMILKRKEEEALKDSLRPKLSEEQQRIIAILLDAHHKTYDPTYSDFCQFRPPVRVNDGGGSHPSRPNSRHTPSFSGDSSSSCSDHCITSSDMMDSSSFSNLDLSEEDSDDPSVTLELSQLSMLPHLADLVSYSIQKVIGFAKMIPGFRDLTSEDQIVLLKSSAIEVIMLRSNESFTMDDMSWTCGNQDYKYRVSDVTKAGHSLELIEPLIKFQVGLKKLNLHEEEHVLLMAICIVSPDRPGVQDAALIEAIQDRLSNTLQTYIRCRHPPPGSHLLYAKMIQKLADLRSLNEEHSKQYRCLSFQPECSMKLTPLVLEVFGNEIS
Type: cell-based
Description: By way of example, the VDR agonist activity can be tested on the HeLa cell line by co-transfection with an expression vector for the human VDR receptor and the reporter plasmid p240Hase-CAT which contains the region −1399 to +76 of rat 24-hydroxylase promoter, cloned upstream of the frame encoding the chloramphenicol-acetyl-transferase (CAT)′gene. 18 hours after co-transfection, the test product is added to the medium. 18 hours after treatment, assay of the CAT activity in the cell lysates is carried out by an ELISA test. The results are expressed as percentages of the effect normally observed with 10^−7M calcitriol.
The agonist activity can also be characterized in this co-transfection system, by determining the dose required to reach 50% of the maximum activity of the product (AC50).
The VDR agonist activity was tested on the HeLa cell line, by co-transfection of an expression vector of the human VDR receptor and of the reporter plasmid p240Hase-CAT which contains the region −1399 to +76 of the rat 24-hydroxylase promoter, cloned upstream of the coding frame of the chloramphenicol-acetyl-transferase (CAT) gene. 18 hours after co-transfection, the test product is added to the medium. After treatment for 18 hours, the CAT activity of the cell lysates is assayed by an ELISA test. The results are expressed as a percentage of the effect normally observed with 10^−7 M of calcitriol.
The agonist activity was characterized in this co-transfection system by determining the dose required to achieve 50% of the maximum activity of the product (AC50).

Row | Structure (SMILES) | AC50
1 | CCC(O)(CC)c1ccc(-c2cccc(OCc3ccc(CO)c(CO)c3)c2C)c(C)c1 [Example 11, {4-[4′-(1-Ethyl-1-hydroxypropl)-2,2′-dimethylbiphenyl-3-yloxymethyl]-2-hydroxymethylphenyl}methanol] | 291 nM
2 | CCC(O)(CC)c1ccc(-c2cccc(SCc3ccc(CO)c(CO)c3)c2)c(C)c1 [Example 10, {4-[4′-(1-Ethyl-1-hydroxypropyl)-2′-methylbiphenyl-3-ylsulphanylmethyl]-2-hydroxymethylphenyl}methanol] | 2040 nM
3 | CCC(O)(CC)c1ccc(-c2cccc(OCc3ccc(CO)c(CO)c3)c2)c(C)c1 [Example 3, {5-4′-[(1-Ethyl-1-hydroxypropyl)-2′-methylbiphenyl-3-yloxymethyl]-2-hydroxymethylphenyl}methanol] | 470 nM

Further lines, results first:

Row | AC50 | Structure (SMILES)
4 | 46 nM | CCC(O)(CC)c1ccc(-c2cc(OCc3ccc(CO)c(CO)c3)ccc2C)c(C)c1 [Example 16, {4-[4′-(1-Ethyl-1-hydroxypropyl)-6,2′-dimethylbiphenyl-3-yloxymethyl]-2-hydroxymethylphenyl}methanol]
5 | 451 nM | CCC(O)(CC)c1ccc(-c2cccc(COc3ccc(CO)c(CO)c3)c2)c(C)c1 [Example 22, {4-[4′-(1-Ethyl-1-hydroxypropyl)-2′-methylbiphenyl-3-ylmethoxy]-2-hydroxymethylphenyl}methanol]
6 | 133 nM | CCC(O)(CC)c1ccc(-c2cc(OCc3ccc(CO)c(CO)c3)ccc2C)cc1 [Example 18, {4-[4′-(1-Ethyl-1-hydroxypropyl)-6-methylbiphenyl-3-yloxymethyl]-2-hydroxymethylphenyl}methanol]
7 | 194 nM | CCC(O)(CC)c1cc(C)c(-c2cc(OCc3ccc(CO)c(CO)c3)ccc2C)c(C)c1 [Example 17, {4-[4′-(1-Ethyl-1-hydroxypropyl)-6,2′,6′-trimethylbiphenyl-3-yloxymethyl]-2-hydroxymethylphenyl}methanol]

These compounds were tested on seborrhoeic scalp (assay: antiseboric lotion applied to a seborrhoeic scalp). Conditions: lotion with 0.030 g compound per 100 g, applied twice a day, within a period of 2 to 6 weeks.
Type: in vivo

Row | Structure (SMILES) | improvement of seborrhoeic scalp
8 | CCCC(O)(CCC)c1ccc(-c2cccc(OCc3ccc(CO)c(CO)c3)c2C)c(C)c1 [Example 12, {2-Hydroxymethyl-4-[4′-(1-hydroxy-1-propylbutyl)-2,2′-dimethylbiphenyl-3-yloxymethyl]phenyl}methanol] | significant improvement
